Values quoted from earlier work in patent US6335361B1, “Method of treating benign forgetfulness” (Juvenon Inc., priority 1999, dated 2002).
Like-named read-outs stand apart in the source and are kept apart here.

How the values were obtained:
mitochondria [1] = tested on: mitochondria
[2] = woman deficient in Q10, 150 mg/kg
mice = conditions: male mice, life-long supplementation
[3] = tested on: oxidative phosphorylation in skeletal muscles and brains; conditions: patients with mitochondrial cytopathies due to enzyme defects
[4] = tested on: human plasma LDL phospholipids; conditions: healthy Finnish men and women, Q10 supplementation
mitochondria [5] = conditions: through action in the mitochondria
striatal nerves = conditions: mice, Q10 diet four weeks before and one week after MPTP
[6] = daily supplements up to 200 mg for 6-12 months and 100 mg daily for up to 6 y
oxidant production = conditions: carnitine supplementation
[7] = older adults 67-80 years, 8 weeks
[8] = men over 60, 5 days

For `CC(=O)O[C@H](CC(=O)[O-])C[N+](C)(C)C` [ALC, acetyl-L-carnitine], the “age-related decrease in cardiolipin, mtDNA transcription and membrane potential” value (mitochondria [1]) is given as “reverse” and the “age-related dysfunction of carnitine-acetyl-carnitine exchange across the inner mitochondrial membrane” value (mitochondria [1]) is given as “slow or reverse”.

For `C[N+](C)(C)C[C@H](O)CC(=O)[O-]` [L-carnitine], the “age-related decrease in cardiolipin, mtDNA transcription and membrane potential” value (mitochondria [1]) is listed as “reverse” and the “age-related dysfunction of carnitine-acetyl-carnitine exchange across the inner mitochondrial membrane” value (mitochondria [1]) is listed as “slow or reverse”.

In the case of `COC1=C(OC)C(=O)C(C/C=C(\C)CC/C=C(\C)CC/C=C(\C)CC/C=C(\C)CC/C=C(\C)CC/C=C(\C)CC/C=C(\C)CC/C=C(\C)CC/C=C(\C)CCC=C(C)C)=C(C)C1=O` [Q10, Coenzyme Q10], the clinical response [2] is listed as “rapidly improved”, the lifespan (mice) is listed as “did not prolong or shorten” and the “oxidative phosphorylation in skeletal muscles and brains” value [3] is listed as “marked improvement”. For the same molecule, the peroxyl radical-trapping capacity [4] was “doubled”, the “Q10 levels in kidney, heart and brain” value (rats; Q10 supplementation) was “not affected” and the lifespan (rats; male rats, life-long supplementation) was “did not prolong or shorten”. The “plasma and liver levels” value (rats; supplemented rats) was 2.6-8.4 times higher, the “programmed cell death, or apoptosis” value (mitochondria [5]) was “appears to block” and the “dopamine, higher than control diet” value (striatal nerves) was 37%. For the same molecule, the “more dense neurons than control diet” value (striatal nerves) was 62%, the adverse effects [6] was “No important adverse effects” and the “effect on doxorubicin-induced oxidant production and mtDNA deletions” value (cardiac tissue; cardiac tissue) was “blocks the effects of doxorubicin”.

In the case of `O=C(O)CCCC[C@@H]1CCSS1` [R-α-alipoic acid, R-α-lipoic acid], the “ambulatory activity of aged rats” value (aged rats; aged rats) is listed as “triple”, the “age-related decline in mitochondrial membrane potential” value (aged rats; rat, in vivo) is listed as “restore” and the “age-related decrease in oxygen consumption” value (aged rats; rat, in vivo) is listed as “reverse”. For the same molecule, the “age-related increase in oxidants” value (aged rats; rat, in vivo) was “significantly lower” and the “glutathione and ascorbic acid levels” value (aged rats; rat, in vivo) was “to youthful levels”.

For `C[N+](C)(C)CC(O)CC(=O)[O-]` (stereo not drawn) [carnitine], the cell antioxidants (oxidant production) is given as “decreased cell antioxidants markedly” and the “increase of oxidant production” value (oxidant production) is given as 30%.

In the case of `CN(CC(=O)O)C(=N)N` [creatine], the safety (1.5 g-25 g/day for at least a year) is listed as “safe”, the adverse effects (athletes, up to 75 grams a day for years, aside from weight gain) is listed as “without known adverse effects” and the “skeletal muscle strength and endurance” value (older individuals (40-73), 20 g/day, one week) is listed as “increased”. The time to exhaustion (phosphocreatine (PCr); both groups combined) was “increased”, the “increase of resting PCr” value (phosphocreatine (PCr); middle-aged group (50-year-olds), P<0.05) was 30% and the “mean initial PCr resynthesis rate” value (phosphocreatine (PCr); middle-aged group, P<0.05) was “increased significantly”. For the same molecule, the “increase of resting PCr” value (phosphocreatine (PCr); young group (30-year-olds), P<0.05) was 15%, the “1- and 12-repetitions maxima, effect of creatine supplementation” value [7] was “no beneficial effect” and the “isokinetic performance and body mass” value [8] was “only small increases”. The isometric strength [8] was “no effect”.

For `COc1cccc2c1C(=O)c1c(O)c3c(c(O)c1C2=O)C[C@@](O)(C(=O)CO)C[C@@H]3O[C@H]1C[C@H](N)[C@H](O)[C@H](C)O1` [doxorubicin], the mitochondrial oxidant production (cardiac tissue; doxorubicin by itself) is given as “stimulates” and the “mtDNA deletions in cardiac tissue” value (cardiac tissue; doxorubicin by itself) is given as “marked increase”.

For `COc1c(O)c(C)c(C/C=C(\C)CC/C=C(\C)CC/C=C(\C)CC/C=C(\C)CC/C=C(\C)CC/C=C(\C)CC/C=C(\C)CC/C=C(\C)CC/C=C(\C)CCC=C(C)C)c(O)c1OC` [ubiquinol-10], the “oxidative damage to DNA of human lymphocytes” value (human lymphocytes) is given as “appears to protect”.
